These results are taken from US8748480B2, “Methods for treating opioid tolerance” (priority 2005, dated 2014).

Molecules are shown by their SMILES. Read-outs that look alike come from different tables or passages of the source.

Assay [1] relates to fMLP-dependent ERK activation. Put plainly: fMLP-dependent ERK activation. It is filed as cell-based.
The target in a further assay is Gβγ subunits (Rattus norvegicus, UniProt P54311). As to the kind of experiment: Gα subunit-Gβγ interaction (FIG. 2). It counts as binding. Here is the method: FIG. 2 is a graph illustrating that NSC119910 binds to Gβγ and interferes with physiologically relevant protein interactions such as with the Gα subunit.
(§1) Fluorescein-labeled Gαi1 (Fαi1) was prepared in accordance with standard methods (Sarvazyan, et al. (1998) supra). Assays were used to determine peptide effects on Gα-Gβγ interactions included competition and dissociation assays (Ghosh, et al. (2003) supra). Briefly, for competition-based assays, 100 pM Fαi1 and indicated concentrations of peptides were added to 50 pM b-Gβ1γ2 immobilized on 10^5 beads per mL and incubated at room temperature for 30 minutes to reach equilibrium. The bead-associated fluorescence was then recorded in a BD Biosciences FACSCALIBUR™ flow cytometer. Data was corrected for background fluorescence and fit with a sigmoid dose response curve using Graph Pad Prism 4. To measure dissociation of Fαi1 from b-Gβ1γ2, 100 pM of Fαi1 was incubated with 50 pM immobilized b-Gβ1γ2 at room temperature for 15-20 minutes. The fluorescence of bound Fαi1 subunit was measured, followed by the addition of a 200-fold excess of unlabeled Gαi1 or peptides and the amount of Fαi1 remaining bound to the beads was measured at the indicated times.

For a further assay, the system named is PLC β. Put plainly: Phospholipase C-Gβγ interaction, PLC enzymatic activity (FIG. 3). As to conditions: in vitro. It counts as biochemical. Here is the method: FIG. 3 is a graph illustrating the inhibition of phospholipase C-Gβγ interactions by NSC119910. Phospholipase enzymatic activity was determined using well-established methods (Ghosh and Smrcka (2003) Meth. Mol. Biol. 237:67-75).

The test system of another assay is Mice. As to the kind of experiment: 55° C. warm-water tail-flick test, intracerebroventricular injection. It is filed as in vivo. As to conditions: 100 nmol NSC119910 i.c.v. with morphine. Here is the method:
Opioid receptors, μ, Δ, and κ, couple to Gi and Go proteins through α and βγ subunits, and regulate a number of signaling pathways. […] Mice were tested 20 minutes after the injection for an analgesic response in a 55° C. warm-water tail-flick test (Wells, et al. (2001) J. Pharmacol. Exp. Therapeut. 297:597-605).
(In general: Hot-plate and tail-flick tests time the reaction to a heat stimulus.)

In assay [2] the target is T1, Gβγ (protein interaction site of Gβ) (Rattus norvegicus, UniProt P54311).
T1 construct: made in house; host or cells: Sf9 insect cells (baculovirus), co-expressed with BirA and (His)6-Gαi1
Put plainly: Phage ELISA: small molecules competing with SIGK-phage binding to immobilized biotinylated Gβγ. The procedure:
Exemplary compounds of the present invention were initially selected from a computational screen to identify ligands that bind to the novel protein interaction site of Gβ. The computational screen involved using SYBYL molecular modeling software to model the protein interaction site of Gβ as determined in the X-ray structure disclosed herein. The computational docking screen was performed with the National Cancer Institute 1900 compound library wherein the compounds were tested for docking to the protein interaction site of Gβ using FLEXX™ (Tripos, Inc., St. Louis, Mo.) for docking and CSCORE™ (Tripos, Inc.) to evaluate the energetics and fitness of the docked structure. Algorithm-dependent lists of compounds, predicted to interact with the protein interaction site of Gβ and the structural model of the interaction, were generated. Selected compounds were subsequently analyzed in the phage ELISA binding assay disclosed herein to assess whether these compounds could bind to the protein interaction site of Gβ and interfere with protein interactions at this surface.
Wild-type Gβ1 and Gβ1 mutants were made in the baculovirus vector PDW464 which encodes a biotinylation site at a lysine upstream of the amino terminus of Gβ1 (Goubaeva, et al. (2003) supra). Mutants were generated by overlap extension PCR using standard protocols. The wild-type and mutant Gβ1 constructs consisted of a 20 amino acid biotin acceptor peptide (BAP) sequence fused in-frame with the amino-terminus of rat Gβ1 subunit. When coexpressed with biotin holoenzyme synthetase (BirA) in Sf9 cells, the Gβ1 subunit becomes covalently biotinylated in vivo at the Specific lysine acceptor residue in the BAP.
Phage ELISA assays used to assess peptide binding to wild-type and mutant b-βγ were performed according to standard methods (Smrcka and Scott (2002) Methods Enzymol. 344:557-76). Briefly, 1 μg streptavidin was immobilized in the well of a […] overnight at 4° C. The wells were blocked with 100 μL of 2% bovine serum albumin (BSA) in Tris-buffered saline (TBS) for 1 hour at 4° C. followed by three washes of 1×TBS/0.5% TWEEN®. […] The wells were washed, followed by the addition of 1×10^6 to 1×10^10 phage particles and incubated at 4° C. for 3 hours. The wells were then washed six times with TBS/0.5% TWEEN® followed by addition of 40 μL of 1:5000 dilution of anti-M13 antibody (Pharmacia, Uppsala, Sweden) and incubated at room temperature for 1 hour. The wells were washed, followed by the addition of 40 μL of (2,2′-Azino-bis(3-ethylbenzthiazoline)-6-sulfonic acid (ABTS) and the colorimetric reaction was monitored at 405 nm. Non-specific binding was subtracted for each reading.
A phage ELISA assay was used to determine whether small molecules identified in the computational screen could interact with the Gβγ protein interaction surface. […] The screen was based on a reduction in the optical density (OD) of wells containing Gβγ subunits and phage. […] Three background wells contained no βγ subunits.
As disclosed herein, biotinylated Gβγ subunits were immobilized on the surface of a 96-well plate coated with streptavidin, phage displaying Gβγ-binding peptides were subsequently added and binding in the presence and absence of test compounds detected with an anti-phage antibody.

The test system of assay [3] is differentiated HL-60 neutrophil. As to the kind of experiment: Cytosolic Ca2+ in agonist-activated neutrophils (fura-2). It is filed as cell-based. The procedure:
FIG. 4 is a bar graph depicting the peak cytosolic Ca^2+ concentrations for neutrophils activated with fMLP or ATP agonists in the presence or absence of 10 μM NSC119910. fMLP, n=3; ATP, n=2.
Gβγ-regulated activities of PI3Kγ and PLC-β2/-β3 are important in chemoattractant-induced responses and inflammation. PI3Kγ is involved in the production of TI-IgλL and mice deficient in PI3Kγ, lack neutrophil migration (Li, et al, (2000) Science 287:1046-9). The PLC pathway is involved in down-modulation of chemotaxis and in hyperinflammatory conditions (Li, et al. (2000) supra). Therefore, it was determined whether NSC119910 could inhibit the Gβγ/PLC interaction and block PLC activation.
Ca^2+ fluxes were measured using two 35 mL cultures of differentiated HL-60 neutrophil cultures (0.2×10^6 cells/mL). Cells were cultured for three days with in DMSO (1.2%), washed in HSS and resuspended in 2 mL HBSS at a concentration of 7×10^6 cells/mL. Addition of DMSO to the growth medium induces differentiation of these cells into morphologically and functionally mature neutrophils (Collins, et al. (1978) Proc. Natl. Acad. Sci. USA 75:2458; Collins, et al., (1979) J. Exp. Med. 149:969). Neutrophils were preloaded with fura-2 (1 μM), a fluorescent Ca^2+-sensitive indicator (Suh, et al., (1996) J. Biol. Chem. 271:32753), for 45 minutes, washed with HBSS and resuspended in 2 mL of indicator-free HBSS. An 140 μL aliquote of cells was added to a total of 2 mL HBSS. Fluorescence ratios were taken by dual excitation at 340 and 380 nm and emission at 510 nm. After a stable baseline was established, either DMSO or NSC119910 was added and incubated for 5 minutes. Subsequently, either fMLP or ATP agonists were added to activate release of Ca^2+ from intracellular stores.

Another assay concerns PLC-β2. Put plainly: Purified PLC-β2 activation by purified βγ (FIG. 6). It counts as biochemical. The conditions noted are these: purified PLC-β2 with purified βγ. Here is the method: (§2) FIG. 6 is a bar graph illustrating inhibition of PLC-β2 and PLC-β3 activation in the presence of exemplary compounds of the instant invention.
(§3) The ability of NSC119910 analogs to selectively modulate activation PLC-β2 and -β3 was analyzed. In this assay, PLC-β2 and PLC-β3 were purified and PLC enzymatic activity was measured in the presence or absence of purified βγ and in the presence or absence of analog.

Another assay deals with PLC-β3. As to the kind of experiment: Purified PLC-β3 activation by purified βγ (FIG. 6). It counts as biochemical. As to conditions: purified PLC-β3 with purified βγ. The procedure:
as §2, §3

Another assay concerns PI3K. The conditions noted are these: cited from earlier work.
A further assay has as its system type I adenylyl cyclase. As to conditions: cited from earlier work.
Assay [4] deals with voltage-gated N-type Ca++ channel. As to conditions: cited from earlier work.
Assay [5] concerns the target T2, Fαi1·b-Gβ1γ2 heterotrimer (Rattus norvegicus, UniProt P54311).
T2 construct: made in house; host or cells: Sf9 insect cells (baculovirus) for b-Gβ1γ2
Put plainly: Flow cytometry dissociation of Fαi1 from preformed heterotrimer with b-Gβ1γ2. It counts as binding. The conditions noted are these: peptide added to preformed Fαi1·b-Gβ1γ2. The procedure:
as §1

A further assay concerns PLC β2. The conditions noted are these: read-out: IC50 for inhibition of PLC β2 activation by Gβ1γ2; cited from earlier work.

Turning to `O=C(O)C1CCCCC1c1c2ccc(=O)c(O)c-2oc2c(O)c(O)ccc12` (stereo not shown) [NSC119910], the “fMLP-dependent ERK activation” value in assay [1] is “without interfering”. The “interactions of Gα subunit with Gβγ subunits” value on Gβγ subunits is “blocked”. The “PLC β-Gβγ interaction, enzymatic activity of PLC β” value with PLC β is given as “inhibited”. Besides, in the assay on Mice, the “shift to the left in morphine dose-response curve” value was determined as 11 fold. Besides, the IC50 in assay [2] was found to be 100 nM. For the same molecule, in assay [3], the “Ca2+ mobilization” value is “block”. Besides, the “time taken for fluorescence to decline to half-peak values” in assay [3] (10 μM compound, fMLP or ATP (FIG. 5)) is “not substantially affected”. Besides, the “increase in [Ca2+]” value in [3] (ATP-stimulated neutrophils, 10 μM compound) was “not significantly suppressed”. The “increase in cytosolic Ca2+” value in assay [3] (fMLP-stimulated neutrophils, 10 μM compound) was “suppressed”.
As for `O=C(O)/C=C/c1c2ccc(=O)c(O)c-2oc2c(O)c(O)ccc12` [NSC119911], the “fMLP-dependent ERK activation” value in assay [1] is “do not interfere”. Besides, the PLC-β2 activation entry in the assay with PLC-β2 is on record as “block PLC-β2 activation more effectively than PLC-β3 activation”.
With `N[C@H]1CCc2cc(O)c(O)c(O)c2-c2ccc(O)c(=O)cc21` [NSC201400], in the assay with PLC-β3, the PLC-β3 activation entry is reported as “selectively potentiated”. The “fMLP-dependent ERK activation” value in [1] was “do not interfere”. Further, the IC50 in assay [2] (read-out: IC50) came to 100 nM.
In the case of `CC[C@H](C)[C@H](NC(=O)[C@H](CC(N)=O)NC(=O)[C@H](CC(C)C)NC(=O)[C@H](C)NC(=O)[C@H](CCCCN)NC(=O)[C@H](CCCNC(=N)N)NC(=O)[C@@H](NC(=O)[C@@H](N)CO)[C@@H](C)CC)C(=O)N[C@@H](CC(C)C)C(=O)NCC(=O)N[C@@H](Cc1ccc(O)cc1)C(=O)N1CCC[C@H]1C(=O)N[C@@H](CC(=O)O)C(=O)N[C@@H](Cc1ccc(O)cc1)C(=O)N[C@@H](CC(=O)O)C(=O)O` [SIRK], in the assay with PI3K, the “activation of PI3K” value is recorded as “blocked”. Further, the “Gβ1γ2 regulation of type I adenylyl cyclase” value with type I adenylyl cyclase is on record as “little or no effect”. The “Gβ1γ2 regulation of voltage-gated N-type Ca++ channel activity” value in [4] is on record as “little or no effect”. The “dissociation of a preformed heterotrimer” value in assay [5] was “promotes dissociation”. In addition, the 50% inhibitory concentration (IC50) in the assay with PLC β2 was 5000 nM.

Usually IC50 stands for the concentration that gives 50% inhibition.
